Data taken from paper PMC5584973, “Characterization of novel bangle lectin from Photorhabdus asymbiotica with dual sugar-binding specificity and its effect on host immunity” (PLoS Pathogens, 2017).
Like-named read-outs stand apart in the source and are kept apart here.

Tests used:
PHL [1] = molecular target: T1, PHL (Photorhabdus asymbiotica, UniProt C7BLE4); test: Haemagglutination inhibition assay with PHL; format: cell-based; settings: for Potency towards L-fucose: haemagglutination inhibition, from MIC; for MIC (minimal inhibitory concentration) of haemagglutination by PHL: microscopy
Protocol: A haemagglutination inhibition assay was performed to determine the specificity and semi-quantitative affinity of PHL interaction with the saccharides. A wide range of monosaccharides at concentrations from 50 mM to 0.5 mM were used for determining the lowest inhibiting concentration. A 20 μl mixture composed of 5 μl PHL (2mg/ml), 5 μl saccharide, and 10 μl 10% RBCs was prepared (all components of reaction were in PBS buffer). After 10 minutes, the reaction was observed using a Levenhuk microscope.

PHL [2] = molecular target: T1, PHL; test: Isothermal titration calorimetry (ITC); format: binding
Protocol: (§1) ITC experiments were performed using an ITC200 calorimeter (Malvern, England). Experiments were performed at 25°C in buffer A (300 mM NaCl, 20 mM Tris/HCl, pH 7.5). Carbohydrate ligands were dissolved in the same buffer. Protein in the cell (50 μM) was titrated by consecutive addition (2 μl) of the ligand in the syringe (1.5–50 mM) while stirring at 1000 rpm. Control experiments performed with injections of buffer in the protein solution yielded insignificant signals. Integrated heat effects were analyzed by nonlinear regression using a single-site binding model in Origin 7 (Microcal). The experimental data fitted to a theoretical titration curve brought up stoichiometry (n), association constant Ka, and the enthalpy of binding ΔH. The other thermodynamic parameters such as free energy (ΔG) and […] (ΔS) were calculated from the equation ΔG = ΔH-TΔS = -RTlnKa, where T is the absolute temperature and R is the molar gas constant (8.314 J.mol^-1.K^-1). At least two independent titrations were carried out for each tested ligand.

PHL [3] = molecular target: T1, PHL; test: SPR inhibition of PHL binding to immobilized L-fucoside; settings: for Potency relative to L-Fuc: SPR inhibition, from IC50
Protocol: (§2) SPR inhibition experiments were performed using the same conditions described above. The PHL lectin (0.25 μM final concentration) was mixed with various concentrations of inhibitors (1M – 0.01 mM) and injected onto the sensor chip. Pure PHL lectin was used as a control (0% inhibition). The response of the lectin bound to the sugar surface at equilibrium was plotted against the concentration of inhibitor in order to determine IC50.

PHL [4] = molecular target: T1, PHL; format: binding; settings: calculated from hexaplicates
[5] = tested on: phenoloxidase (PO) in haemolymph of G. mellonella; test: Phenoloxidase activity in insect haemolymph; format: biochemical, Galleria mellonella; settings: 0.2M sugar, PHL 475 μg
Protocol: Larvae of the greater wax moth, Galleria mellonella, were reared on an artificial diet at 30 ± 1°C in constant darkness. Haemolymph was collected from the seventh instar larvae by cutting a proleg and pooling the haemolymph into a tube containing phenylthiourea (1 mg/ml in PBS; haemolymph mixed with phenylthiourea in the ratio 9:1 [v/v]) or used directly for the determination of phenoloxidase activity.
PO activity was measured according to previously published studies. Haemolymph of G. mellonella (5 μl) was collected directly to 95 μl of PHL (475 μg in PBS for all experiments except dose-dependence assay where different dilutions of PHL were used), PLL (475 μg in PBS), BSA (475 μg in PBS) or PBS (pH 7.4) and incubated for 10 min at room temperature. After incubation, 40 μl of reaction mixture was transported to the microplate well and 160 μl of 3,4-dihydroxy-DL-phenylalanine (3 mg/ml in PBS) was added as substrate. The reaction was allowed to proceed for 30 min, and absorbance was measured in 2-min intervals at 492 nm with a Sunrise reader (Tecan, Switzerland). PO activity was expressed as linear increase in absorbance per minute. For the inhibition assay, PHL was pre-incubated with 0.2M L-Fuc or Me-α-L-Fuc for 10 min at room temperature prior to mixing with haemolymph.

PHL [6] = test: Isothermal titration calorimetry (ITC); format: binding, Photorhabdus asymbiotica; settings: ITC, PLL data ref 21
Protocol: as §1

PHL [7] = test: SPR inhibition of PHL binding to immobilized L-fucoside; parameters: species or system Photorhabdus asymbiotica; settings: IC50 from SPR inhibition, PLL data ref 21
Protocol: as §2

[8] = ITC at 25°C, stoichiometry fixed to 3, read-out: KD (n = 3)
[9] = ITC at 25°C, stoichiometry fixed to 4, read-out: KD (n = 4)
[10] = SPR, PHL 0.25 μM binding to immobilized L-fucoside, 25°C, read-out: IC50
[11] = glycan array signal of labelled PHL for the printed glycan/polysaccharide, Semiotic slide 10085636
[12] = glycan array signal of PHL per printed glycan, microarray chip (Semiotic, Moscow; Slide number 10085636), 488 channel

T1 sequence (C7BLE4 1-369): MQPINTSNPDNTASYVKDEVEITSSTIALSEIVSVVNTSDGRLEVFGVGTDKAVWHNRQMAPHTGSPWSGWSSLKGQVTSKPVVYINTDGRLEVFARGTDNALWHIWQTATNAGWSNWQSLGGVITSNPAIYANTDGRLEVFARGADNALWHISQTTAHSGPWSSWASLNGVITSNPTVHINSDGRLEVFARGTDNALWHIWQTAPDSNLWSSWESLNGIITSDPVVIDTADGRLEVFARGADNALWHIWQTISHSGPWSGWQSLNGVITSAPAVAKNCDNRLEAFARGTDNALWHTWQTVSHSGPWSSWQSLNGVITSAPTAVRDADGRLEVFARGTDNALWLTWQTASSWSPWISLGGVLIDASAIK

CC(=O)N[C@H]1C(O)O[C@H](CO)[C@@H](O[C@@H]2O[C@@H](C)[C@@H](O)[C@@H](O)[C@@H]2O)[C@@H]1O (some centres unmarked) [Fucα1-4GlcNAc]
Potency towards L-fucose (PHL [1]): 1.3
MIC (minimal inhibitory concentration) of haemagglutination by PHL (PHL [1]): 2500 µM
Kd (PHL [2]; [8]): 4460 ± 310 µM
Kd (PHL [2]; [9]): 4370 ± 310 µM
Potency relative to L-Fuc (PHL [3]): 0.49
IC50 (PHL [3]; [10]): 730 µM

CC(=O)N[C@H]1[C@@H](OC[C@H](N)C(=O)O)O[C@H](CO)[C@H](O)[C@@H]1O [GalNAcα1-OSer]
Median (PHL [4]; [11]): 71

CC(=O)N[C@@H]1[C@@H](O)[C@H](O[C@@H]2O[C@H](CO)[C@@H](O)[C@H](O)[C@H]2NC(C)=O)[C@@H](CO)O[C@H]1NC(=O)C[C@H](N)C(=O)O [GlcNAcβ1-4GlcNAcβ-Asn]
Median (PHL [4]; [11]): 77

NCC(O)C(O)C(O)C(O)CO (centres unmarked) [HOCH2(HOCH)4CH2NH2]
Median (PHL [4]; [11]): 70

C[C@H](O)[C@@H](O)[C@@H](O)[C@H](O)C=O [L-Fuc, L-fucose]
Potency towards L-fucose (PHL [1]): 1
MIC (minimal inhibitory concentration) of haemagglutination by PHL (PHL [1]): 3125 µM
PHL activation of melanisation in the presence of sugar [5]: inhibited
Kd (PHL [2]; [8]): 1400 ± 30 µM
Kd (PHL [2]; [9]): 1330 ± 40 µM
fold higher affinity of PHL than PLL (PHL [6]): approx. 4 fold
IC50 (PHL [3]): 360 µM
fold better inhibition effect for PHL than for PLL (PHL [7]): 15 fold

CO[C@@H]1O[C@@H](C)[C@@H](O)[C@@H](O)[C@@H]1O [Me-α-L-Fuc, Methyl-α-L-fucopyranoside]
Potency towards L-fucose (PHL [1]): 8
MIC (minimal inhibitory concentration) of haemagglutination by PHL (PHL [1]): 390 µM
PHL activation of melanisation in the presence of sugar [5]: inhibited
Kd (PHL [2]; [8]): 260 ± 40 µM
Kd (PHL [2]; [9]): 210 µM
binding stoichiometry (PHL [2]; ITC, fitted): approx. 2.9
Kd (PHL [2]; ITC, stoichiometry not fixed, read-out: equilibrium dissociation constant): 270 µM
fold higher affinity of PHL than PLL (PHL [6]): approx. 4 fold
IC50 (PHL [3]; [10]): 40 µM
fold better inhibition effect for PHL than for PLL (PHL [7]): 42 fold

CO[C@H]1O[C@@H](C)[C@@H](O)[C@@H](O)[C@@H]1O [Me-β-L-Fuc, methyl-β-L-fucopyranoside]
Potency towards L-fucose (PHL [1]): 0.5
MIC (minimal inhibitory concentration) of haemagglutination by PHL (PHL [1]): 6250 µM
Kd (PHL [2]; [8]): 3550 ± 90 µM
Kd (PHL [2]; [9]): 3480 ± 90 µM
Potency relative to L-Fuc (PHL [3]): 0.47
IC50 (PHL [3]; [10]): 770 µM

Curdlan
Median (PHL [4]; [11]): 75

GalNAcα1-3(Fucα1-2)Galβ1-4GlcNAcβ-sp3
Median (PHL [4]; [12]): 79

GalNAcα1-3Galβ1-4(Fucα1-3)GlcNAcβ-sp3
Median (PHL [4]; [11]): 73

GalNAcβ1-4GlcNAcβ-sp2
Median (PHL [4]; [12]): 87

Galα1-3Galβ1-4GlcNAcβ-sp3
Median (PHL [4]; [11]): 70

Galα1-4GlcNAcβ-sp8
Median (PHL [4]; [11]): 75

Galβ1-4GlcNAcβ1-6(Galβ1-4GlcNAcβ1-3)GalNAcα-sp3
Median (PHL [4]; [11]): 71

Galβ1-4GlcNAcβ-sp8
Median (PHL [4]; [12]): 83

Galβ1-6Galβ-sp4
Median (PHL [4]; [12]): 85

GlcNAcβ1-4Galβ1-4GlcNAcβ-sp2
Median (PHL [4]; [12]): 86

GlcNAcβ-sp8
Median (PHL [4]; [12]): 78
